Assay results reported in publication PMC3694297, “Establishment of a simplified in vitro porcine blood–brain barrier model with high transendothelial electrical resistance” (Brain Research, 2013).

Experiments:
[1] = tested on: porcine brain endothelial cells (PBECs); details: apical to basal, P.1 PBEC; line through passive compounds R^2=0.96
Method: Permeability assays were performed on cell monolayers with TEER >500 Ω cm^2. […] At t=5 min, the inserts were transferred to the next well containing donor buffer. This procedure was repeated for all inserts at t=15 min and t=30 min. At the end of the experiment, samples were taken from each insert and well to scintillation vials. OptiPhase HiSafe 2 scintillation liquid was added to each vial and radioactivity was counted using a Canberra Packard Tricarb 1900 TR Liquid Scintillation Analyser.
Cleared volume was calculated using the following equation and plotted as a function of time:(1) Clearedvolume(μl)=MR(dpm)/CD(dpm/μl) where is the MR=amount of radio-labelled compound in the receiver compartment, dpm=disintegrations per minute, CD=concentration of the compound in the donor compartment.
All dpm values were corrected for background dpm. The slope of the clearance curve was obtained by linear regression and represents the PS (i.e. permeability × surface area) product. Apparent permeability (Papp, cm/s) was calculated using the following equation:(2) Papp(cm/s)=PSproduct(cm^3/s)/surfaceareaoftheinsert(cm^2)
The apparent permeability Papp was calculated according to Eq. (2) and plotted against the calculated Log Poctanol as a measure of lipophilicity of the compound.

[2] = tested on: hCMEC/D3, immortalised human brain microvascular endothelial cells; design: method as in Förster et al., 2008; details: hCMEC/D3 treated with hydrocortisone; ref Förster et al., 2008; cited from earlier work
[3] = tested on: cEND (an immortalised mouse brain endothelial cell line); design: method as in Förster et al. (2005); details: cEND cells treated with hydrocortisone; ref Förster et al. (2005); cited from earlier work

Papp relative to the line of Papp vs. calculated Log Poctanol [1] | SMILES | other results
clear outliers below the line | N[C@@H](CCC(=O)O)C(=O)O [glutamate, L-glutamic acid] | –
– | C[C@]12CCC(=O)C=C1CC[C@@H]1[C@@H]2[C@@H](O)C[C@@]2(C)[C@H]1CC[C@]2(O)C(=O)CO [hydrocortisone] | increase in TEER [2]: three-fold; increase in expression of occludin and claudin-5 [2]: over twofold; increase in TEER [3]: threefold
clear outliers below the line | CC[C@]1(O)C[C@@H]2CN(CCc3c([nH]c4ccccc34)[C@@](C(=O)OC)(c3cc4c(cc3OC)N(C)[C@H]3[C@@](O)(C(=O)OC)[C@H](OC(C)=O)[C@]5(CC)C=CCN6CC[C@]43[C@@H]65)C2)C1 [vinblastine] | –
clear outliers above the line | CC(C)C[C@H](N)C(=O)O [Leucine, L-leucine] | –
clear outliers above the line | Cn1c(=O)c2c(ncn2C)n(C)c1=O [caffeine] | –

SMILES | Papp relative to the line of Papp vs. calculated Log Poctanol [1] | other results
CC(C)NCC(O)COc1cccc2ccccc12 (stereo not drawn) [propranolol] | linear function of calculated Log Poctanol | –
C=CCN1CC[C@]23c4c5ccc(O)c4O[C@H]2C(=O)CC[C@@]3(O)[C@H]1C5 [naloxone] | linear function of calculated Log Poctanol | –
